These results are taken from patent publication US4622387A, “8-methionine calcitonin” (Armour Pharmaceutical Co., priority 1985, dated 1986).

In test [1] the test system is serum calcium concentration.
Experimental: Biological Assay Of Calcitonin Analogs In Vivo
The biological potency of [8-methionine]salmon calcitonin was determined by comparing the reduction of serum calcium concentration which followed administration by graded doses of [Met^8 ]SCT and synthetic salmon calcitonin standard. Rats were divided into four groups of seven animals, and each group was assigned at random to a dose of standard or test solution. Low and high doses were chosen from the linear portion of the dose-response curve. For the salmon calcitonin standard, the values were 0.7 and 2.1 mcg. peptide/100 g. body weight (BW). This dose approximates 3 and 9 MU/100 g. BW. Peptides were given by subcutaneous injection (0.2 ml/100 g. BW) and blood was withdrawn 1 hour later for serum calcium determination. Sera are processed and analyzed within two hours of collection. Results were analyzed within two hours of collection.
Test [2] has as its system serum calcium (hypocalcemic potency). To be noted: Monikawa et al., Experientia 32(9), 1104-1106 (1976); cited from earlier work.

Where a SMILES comes first, the peptide text is derived from it. Bridges are numbered along the chain shown (N, C = ends).

For the compound `CSCC[C@H](NC(=O)[C@@H]1CSSC[C@H](N)C(=O)N[C@@H](CO)C(=O)N[C@@H](CC(N)=O)C(=O)N[C@@H](CC(C)C)C(=O)N[C@@H](CO)C(=O)N[C@@H]([C@@H](C)O)C(=O)N1)C(=O)N[C@@H](CC(C)C)C(=O)NCC(=O)N[C@@H](CCCCN)C(=O)N[C@@H](CC(C)C)C(=O)N[C@@H](CO)C(=O)N[C@@H](CCC(N)=O)C(=O)N[C@@H](CCC(=O)O)C(=O)N[C@@H](CC(C)C)C(=O)N[C@@H](Cc1c[nH]cn1)C(=O)N[C@@H](CCCCN)C(=O)N[C@@H](CC(C)C)C(=O)N[C@@H](CCC(N)=O)C(=O)N[C@H](C(=O)N[C@@H](Cc1ccc(O)cc1)C(=O)N1CCC[C@H]1C(=O)N[C@@H](CCCNC(=N)N)C(=O)N[C@H](C(=O)N[C@@H](CC(N)=O)C(=O)N[C@H](C(=O)NCC(=O)N[C@@H](CO)C(=O)NCC(=O)N[C@H](C(=O)N1CCC[C@H]1C(N)=O)[C@@H](C)O)[C@@H](C)O)[C@@H](C)O)[C@@H](C)O` [[Met^8]SCT, [8-methionine]salmon calcitonin] (H-CSNLSTCMLGKLSQELHKLQTYPRTNTGSGTP-NH2; disulfide 1-7), the biological potency in test [1] (rat, in vivo, sc) is 5500 IU/mg. Consider `CC(C)C[C@H](NC(=O)[C@H](CCCCN)NC(=O)CNC(=O)[C@H](CC(C)C)NC(=O)[C@@H](NC(=O)[C@@H]1CSSC[C@H](N)C(=O)N[C@@H](CO)C(=O)N[C@@H](CC(N)=O)C(=O)N[C@@H](CC(C)C)C(=O)N[C@@H](CO)C(=O)N[C@@H]([C@@H](C)O)C(=O)N1)C(C)C)C(=O)N[C@@H](CO)C(=O)N[C@@H](CCC(N)=O)C(=O)N[C@@H](CCC(=O)O)C(=O)N[C@@H](CC(C)C)C(=O)N[C@@H](Cc1c[nH]cn1)C(=O)N[C@@H](CCCCN)C(=O)N[C@@H](CC(C)C)C(=O)N[C@@H](CCC(N)=O)C(=O)N[C@H](C(=O)N[C@@H](Cc1ccc(O)cc1)C(=O)N1CCC[C@H]1C(=O)N[C@@H](CCCNC(=N)N)C(=O)N[C@H](C(=O)N[C@@H](CC(N)=O)C(=O)N[C@H](C(=O)NCC(=O)N[C@@H](CO)C(=O)NCC(=O)N[C@H](C(=O)N1CCC[C@H]1C(N)=O)[C@@H](C)O)[C@@H](C)O)[C@@H](C)O)[C@@H](C)O` [standard salmon calcitonin, Salmon calcitonin], for which, in test [1] (standard salmon calcitonin, independently determined), the “potency content of the standard” value is recorded as “greater than 4,000 IU/mg”.

For “(1,7-α-L-aminosuberic acid)eel calcitonin”, the hypocalcemic potency entry in test [2] was “about 3400 Iu/mg”. On to “eel calcitonin [synthetic eel calcitonin]”, for which the hypocalcemic potency entry in test [2] was “around 4300 Iu/mg”.
